Experimental data published in BigSolDB 2.1.

CC(=CC(C)=Nc1c(C)cc(C)cc1C)Nc1c(C)cc(C)cc1C
solubility (mole fraction)
Conditions | 273.15 K | 278.15 K | 283.15 K | 288.15 K | 293.15 K | 298.15 K | 303.15 K
in THF | 0.215 | 0.233 | 0.253 | 0.273 | 0.295 | 0.317 | 0.346
in ethanol | 0.00285 | 0.00317 | 0.00373 | 0.00471 | 0.00561 | 0.00678 | 0.00849
in methanol | 0.0008 | 0.00094 | 0.00117 | 0.00137 | 0.00169 | 0.00205 | 0.00275
in n-hexane | 0.0989 | 0.106 | 0.124 | 0.148 | 0.181 | 0.216 | 0.255
in toluene | 0.189 | 0.211 | 0.236 | 0.264 | 0.295 | 0.33 | 0.372
